The test has as its system L1210 leukemia ip in BDF1 mice, survival T/C. The test can be described thus: NCI In Vivo Anticancer Drug Screen. Data for tumor model L1210 Leukemia (intraperitoneal) in B6D2F1 (BDF1) mice. The conditions noted are these: endpoint: mean survival time, higher = longer survival. The method in brief: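 Each compound was tested against a transplantable tumor grown in mice. The endpoint was survival, with treated animals benchmarked against vehicle controls as a simple ratio.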

[1] abbreviates: dose: 100.0 mg/kg/injection, schedule: Q01DX009 (ip), vehicle: Klucel (hydroxypropylcellulose) (HPC).
Where [2] appears, read: dose: 200.0 mg/kg/injection, schedule: Q01DX009 (ip), vehicle: Klucel (hydroxypropylcellulose) (HPC).
[3] abbreviates: dose: 400.0 mg/kg/injection, schedule: Q01DX009 (ip), vehicle: Klucel (hydroxypropylcellulose) (HPC).
[4] abbreviates: dose: 200.0 mg/kg/injection, schedule: Q01DX001 (ip), vehicle: saline.
Where [5] appears, read: dose: 400.0 mg/kg/injection, schedule: Q01DX001 (ip), vehicle: saline.
Setting [6] is: dose: 100.0 mg/kg/injection, schedule: Q04DX003 (ip), vehicle: Klucel (hydroxypropylcellulose) (HPC).
Where [7] appears, read: dose: 200.0 mg/kg/injection, schedule: Q04DX003 (ip), vehicle: Klucel (hydroxypropylcellulose) (HPC).
[8] abbreviates: dose: 400.0 mg/kg/injection, schedule: Q04DX003 (ip), vehicle: Klucel (hydroxypropylcellulose) (HPC).
Setting [9] is: dose: 100.0 mg/kg/injection, schedule: Q01DX001 (ip), vehicle: saline.

The structures appear in SMILES notation. Values joined by “and” are separate entries in the source; they are usually repeats but may differ in a detail not shown here. Equal entries are not always repeated. Toxic doses and inconclusive results are not listed.

This is an account of results in PubChem BioAssay AID248 (DTP/NCI, 2004).

Regarding `c1ccc(-c2oc(-c3ccccc3)c3c2CCCC3)cc1`, the T/C under setting [1] is 100 % of control, the T/C under setting [2] was 98 % of control and the T/C under setting [3] was 98 % of control.

For the molecule `O=C(N/N=C/c1cc(Cl)ccc1[N+](=O)[O-])c1cccc2ccccc12`, the T/C was 101 % of control under setting [4] and 97 % of control under setting [5].

As for `Cc1cccc(Cl)c1NC(=S)N1CCCC1`, the T/C was 94 % of control under setting [1], 94 % of control under setting [2] and 96 % of control under setting [3].

In the case of `Brc1ccccc1C[n+]1cccc2ccccc21`, the T/C (dose: 75.0 mg/kg/injection, schedule: Q01DX001 (ip), vehicle: other) is 101 % of control.

Regarding `COc1ccc(OC)c(NC(=O)Nc2ccc(OC)cc2OC)c1`, the T/C is, setting by setting: (dose: 100.0 mg/kg/injection, schedule: Q01DX009 (ip), vehicle: saline) 110 % of control; (dose: 200.0 mg/kg/injection, schedule: Q01DX009 (ip), vehicle: saline) 113 % of control; (dose: 400.0 mg/kg/injection, schedule: Q01DX009 (ip), vehicle: saline) 108 % of control.

On to `CCC(C)(C)c1ccc(Oc2ccccc2)c(N)c1`, for which the T/C reads like this: (dose: 100.0 mg/kg/injection, schedule: Q01DX009 (ip), vehicle: other) 88 % of control; (dose: 100.0 mg/kg/injection, schedule: Q04DX003 (ip), vehicle: saline with Tween-80) 104 % of control; (dose: 200.0 mg/kg/injection, schedule: Q01DX009 (ip), vehicle: other) 100 % of control; (dose: 200.0 mg/kg/injection, schedule: Q04DX003 (ip), vehicle: saline with Tween-80) 100 % of control; (dose: 400.0 mg/kg/injection, schedule: Q04DX003 (ip), vehicle: saline with Tween-80) 98 % of control.

As for `CC/C(=C(\CC)c1ccc(OCC(=O)N2CC2)cc1)c1ccc(OCC(=O)N2CC2)cc1`, the T/C is 101 % of control (dose: 2.5 mg/kg/injection, schedule: Q04DX002 (ip), vehicle: saline); 101 % of control (dose: 5.0 mg/kg/injection, schedule: Q04DX002 (ip), vehicle: saline); 105 % of control (dose: 10.0 mg/kg/injection, schedule: Q04DX002 (ip), vehicle: saline).

For the molecule `O=C(O)CNCCN1CC(=O)N(c2ccccc2)C1=S`, the T/C runs as follows: (dose: 100.0 mg/kg/injection, schedule: Q01DX001 (ip), vehicle: carboxymethylcellulose (CMC)) 93 % of control; (dose: 100.0 mg/kg/injection, schedule: Q01DX009 (ip), vehicle: carboxymethylcellulose (CMC)) 94 % of control and 95 % of control; (dose: 100.0 mg/kg/injection, schedule: Q04DX002 (ip), vehicle: carboxymethylcellulose (CMC)) 97 % of control and 98 % of control; (dose: 100.0 mg/kg/injection, schedule: Q04DX003 (ip), vehicle: carboxymethylcellulose (CMC)) 98 % of control; (dose: 200.0 mg/kg/injection, schedule: Q01DX001 (ip), vehicle: carboxymethylcellulose (CMC)) 98 % of control; (dose: 200.0 mg/kg/injection, schedule: Q01DX009 (ip), vehicle: carboxymethylcellulose (CMC)) 94 % of control and 90 % of control. Besides, the T/C reads like this: (dose: 200.0 mg/kg/injection, schedule: Q04DX002 (ip), vehicle: carboxymethylcellulose (CMC)) 91 % of control; (dose: 200.0 mg/kg/injection, schedule: Q04DX003 (ip), vehicle: carboxymethylcellulose (CMC)) 93 % of control; (dose: 400.0 mg/kg/injection, schedule: Q01DX001 (ip), vehicle: carboxymethylcellulose (CMC)) 95 % of control; (dose: 400.0 mg/kg/injection, schedule: Q01DX009 (ip), vehicle: carboxymethylcellulose (CMC)) 86 % of control; (dose: 400.0 mg/kg/injection, schedule: Q04DX002 (ip), vehicle: carboxymethylcellulose (CMC)) 97 % of control and 98 % of control; (dose: 400.0 mg/kg/injection, schedule: Q04DX003 (ip), vehicle: carboxymethylcellulose (CMC)) 89 % of control.

`COc1ccc(NCc2ccccc2C#N)c(OC)c1`: the T/C is 103 % of control under setting [6], 108 % of control under setting [7] and 103 % of control under setting [8].

Take `O=C(Nc1ccc(S(=O)(=O)NC2CCCCC2)cc1)OC(c1ccccc1)c1ccccc1`: the T/C by setting is: under setting [9], 96 % of control; under setting [4], 94 % of control; under setting [5], 100 % of control.

Regarding `CCOC(=O)C1(NC(=O)N(CCCl)N=O)CCCC1`, the T/C was 105 % of control (dose: 16.0 mg/kg/injection, schedule: Q01DX001 (ip), vehicle: other); 110 % of control (dose: 31.0 mg/kg/injection, schedule: Q01DX001 (ip), vehicle: other); 178 % of control (dose: 108.0 mg/kg/injection, schedule: Q01DX001 (ip), vehicle: other); 185 % of control (dose: 110.0 mg/kg/injection, schedule: Q01DX001 (ip), vehicle: other); 217 % of control (dose: 125.0 mg/kg/injection, schedule: Q01DX001 (ip), vehicle: other); 236 % of control (dose: 165.0 mg/kg/injection, schedule: Q01DX001 (ip), vehicle: other). Besides, the T/C was 262 % of control (dose: 168.0 mg/kg/injection, schedule: Q01DX001 (ip), vehicle: other); 272 % of control (dose: 247.0 mg/kg/injection, schedule: Q01DX001 (ip), vehicle: other); 278 % of control and 314 % of control (dose: 250.0 mg/kg/injection, schedule: Q01DX001 (ip), vehicle: other); 250 % of control (dose: 370.0 mg/kg/injection, schedule: Q01DX001 (ip), vehicle: other); 115 % of control (dose: 375.0 mg/kg/injection, schedule: Q01DX001 (ip), vehicle: other); 94 % of control (dose: 555.0 mg/kg/injection, schedule: Q01DX001 (ip), vehicle: other).

With `Cc1ccc(S(=O)(=O)N(C)CCC#N)cc1`, the T/C runs as follows: under setting [1], 97 % of control; under setting [6], 100 % of control; under setting [2], 96 % of control; under setting [7], 98 % of control; under setting [3], 96 % of control; under setting [8], 96 % of control.

Regarding `O=C(O)/C=C/C(=O)OCCO`, the T/C runs as follows: (dose: 75.0 mg/kg/injection, schedule: Q01DX001 (ip), vehicle: carboxymethylcellulose (CMC)) 91 % of control; (dose: 150.0 mg/kg/injection, schedule: Q01DX001 (ip), vehicle: carboxymethylcellulose (CMC)) 86 % of control.

For `O=C(O)c1ccc(Oc2ccc(C(=O)O)cc2)cc1`, the T/C reads like this: under setting [1], 103 % of control; under setting [6], 97 % of control; under setting [2], 109 % of control; under setting [7], 100 % of control; under setting [3], 100 % of control; under setting [8], 105 % of control.

Take `O=[N+]([O-])c1ccccc1N=Nc1c(O)[nH]c2c(Cl)cccc12`: the T/C is, setting by setting: under setting [9], 97 % of control; under setting [4], 100 % of control; under setting [5], 97 % of control.

With `Nc1ccccc1SCCC(=O)O`, the T/C is, setting by setting: (dose: 37.5 mg/kg/injection, schedule: Q04DX003 (ip), vehicle: Klucel (hydroxypropylcellulose) (HPC)) 96 % of control; (dose: 75.0 mg/kg/injection, schedule: Q01DX009 (ip), vehicle: saline with Tween-80) 106 % of control; (dose: 75.0 mg/kg/injection, schedule: Q04DX003 (ip), vehicle: Klucel (hydroxypropylcellulose) (HPC)) 86 % of control; (dose: 150.0 mg/kg/injection, schedule: Q01DX009 (ip), vehicle: saline with Tween-80) 105 % of control; (dose: 150.0 mg/kg/injection, schedule: Q04DX003 (ip), vehicle: Klucel (hydroxypropylcellulose) (HPC)) 91 % of control; (dose: 300.0 mg/kg/injection, schedule: Q01DX009 (ip), vehicle: saline with Tween-80) 98 % of control. In addition, the T/C (dose: 300.0 mg/kg/injection, schedule: Q04DX003 (ip), vehicle: Klucel (hydroxypropylcellulose) (HPC)) was 96 % of control.

On to `Nc1c(Br)cc(I)cc1C(=O)O`, for which the T/C is, setting by setting: (dose: 100.0 mg/kg/injection, schedule: Q04DX002 (ip), vehicle: Klucel (hydroxypropylcellulose) (HPC)) 108 % of control; (dose: 200.0 mg/kg/injection, schedule: Q04DX002 (ip), vehicle: Klucel (hydroxypropylcellulose) (HPC)) 93 % of control; (dose: 400.0 mg/kg/injection, schedule: Q04DX002 (ip), vehicle: Klucel (hydroxypropylcellulose) (HPC)) 104 % of control.

For the molecule `ClC/C=C/C[P+](c1ccccc1)(c1ccccc1)c1ccccc1`, the T/C is 89 % of control (dose: 1.56 mg/kg/injection, schedule: Q01DX009 (ip), vehicle: saline); 99 % of control (dose: 3.12 mg/kg/injection, schedule: Q01DX009 (ip), vehicle: saline); 95 % of control (dose: 6.25 mg/kg/injection, schedule: Q01DX009 (ip), vehicle: saline).
